Measurements: BindingDB's records for doi:10.1021/jm900735p (Pharmacy School of Wenzhou Medical College, 2009)

Target: Xanthine dehydrogenase/oxidase (Rattus norvegicus, UniProt P22985)
Test: Inhibition of rat liver xanthine oxidase after 2 hrs by spectrophotometry

Xanthine dehydrogenase/oxidase, sequence (P22985 whole entry): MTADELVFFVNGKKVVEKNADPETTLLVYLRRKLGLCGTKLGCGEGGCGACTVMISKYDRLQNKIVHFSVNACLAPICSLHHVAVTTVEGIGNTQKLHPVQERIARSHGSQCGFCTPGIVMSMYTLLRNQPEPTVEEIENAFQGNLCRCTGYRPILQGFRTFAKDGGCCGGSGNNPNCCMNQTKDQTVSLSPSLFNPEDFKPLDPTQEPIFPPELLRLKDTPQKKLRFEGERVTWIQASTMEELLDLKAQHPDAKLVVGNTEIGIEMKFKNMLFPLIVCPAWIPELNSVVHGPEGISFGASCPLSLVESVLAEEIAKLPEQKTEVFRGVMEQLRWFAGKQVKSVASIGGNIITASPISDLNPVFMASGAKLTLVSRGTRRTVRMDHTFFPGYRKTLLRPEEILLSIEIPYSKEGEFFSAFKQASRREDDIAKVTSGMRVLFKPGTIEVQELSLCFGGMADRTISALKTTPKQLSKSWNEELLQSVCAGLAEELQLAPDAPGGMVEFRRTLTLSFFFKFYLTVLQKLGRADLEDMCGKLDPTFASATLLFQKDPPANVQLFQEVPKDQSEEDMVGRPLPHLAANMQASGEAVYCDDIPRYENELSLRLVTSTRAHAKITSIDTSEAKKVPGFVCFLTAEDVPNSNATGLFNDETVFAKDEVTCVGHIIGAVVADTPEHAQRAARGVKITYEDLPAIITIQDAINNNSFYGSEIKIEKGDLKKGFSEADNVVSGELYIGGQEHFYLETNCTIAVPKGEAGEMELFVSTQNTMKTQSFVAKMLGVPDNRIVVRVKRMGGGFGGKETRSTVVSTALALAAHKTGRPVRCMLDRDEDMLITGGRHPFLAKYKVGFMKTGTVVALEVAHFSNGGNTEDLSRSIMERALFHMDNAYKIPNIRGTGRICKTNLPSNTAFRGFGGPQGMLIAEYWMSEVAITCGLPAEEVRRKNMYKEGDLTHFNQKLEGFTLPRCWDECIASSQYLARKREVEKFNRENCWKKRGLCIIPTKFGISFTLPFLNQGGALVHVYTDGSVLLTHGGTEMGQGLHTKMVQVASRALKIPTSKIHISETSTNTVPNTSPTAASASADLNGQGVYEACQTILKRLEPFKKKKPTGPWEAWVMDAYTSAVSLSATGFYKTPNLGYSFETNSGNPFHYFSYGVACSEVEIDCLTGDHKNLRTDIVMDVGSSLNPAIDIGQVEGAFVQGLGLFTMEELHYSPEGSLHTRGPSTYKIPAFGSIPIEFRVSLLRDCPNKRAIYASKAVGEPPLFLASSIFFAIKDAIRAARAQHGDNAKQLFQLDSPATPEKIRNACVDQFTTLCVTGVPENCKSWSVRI

Molecule `COc1cc(C2Oc3cc(-c4oc5cc(O)cc(=O)c-5c(O)c4O)ccc3OC2CO)ccc1O` (configuration not stated) [Dehydrosilylbin] has an IC50 of 80.3 µM.
`COc1cc([C@@H]2Oc3cc(C4Oc5cc(O)cc(O)c5C(O)C4=O)ccc3O[C@H]2CO)ccc1O` (some centres not stated) [SMR000857154] gave an IC50 of 80.3 µM.
